According to patent US11884708B2, “Stapled peptide inhibitors of nemo as potential anti-inflammatory and anti-cancer drugs” (INSTITUT PASTEUR, priority 2015, dated 2024):
Where a SMILES comes first, the peptide text is derived from it. Bridges are numbered along the chain shown (N, C = ends). Where no end group is shown, it is not given here. [ ]: non-standard residue; d: D form. The star is where a group is joined. BODIPYFLEthylmaleimide = Cc1cc(C)n2c1C=C1C=CC(CCC(=O)NCCN3C(=O)CC(*)C3=O)=[N+]1[B-]2(F)F; R8 = C=CCCCCCC[C@@](C)(N)C(=O)O; S5 = C=CCCC[C@](C)(N)C(=O)O

Legend:
NF-κB pathway = NF-κB pathway (Mus musculus, UniProt O88522); assay: NF-κB inhibition assay, LPS-stimulated 70Z3-C3 lacZ reporter cells; type: cell-based; conditions: 70Z3-C3 cells, 2 h peptide then LPS 4 h; N.I = No inhibition observed
Source text: The stable cell line of pre-B lymphocyte 70Z3-C3 cells expressing the lacZ reporter gene under the control of NF-κB was previously described. OCI-Ly3 (ABC-DLBCL, MALT1 dependent) and OCI-Ly7 (GCB-DLBCL). U2932 (ABC-DLBCL, MALT1 independent) were purchased from DSMZ (Deutsche Sammlung von Mikroorganismen and Zellkulturen) and HLY1 (ABC-DLBCL, MALT1 independent). Jurkat T-cells were obtained after transduction of lentiviruses containing a NF-κB reporter luciferase gene as previously described. All cell lines were grown in RPMI 1640 medium supplemented with 10% FBS, 10 μg/ml of streptomycin, 10 U/ml of penicillin and kept at 37° C., in a 5% CO2 humidified incubator. 0.05 mM of β-mercaptoethanol was added for 70Z3-C3. Primary and secondary antibodies were as following: polyclonal rabbit anti NF-κB p65, (sc-372, Santa Cruz Biotechnology, Inc) Alexa-488 coupled goat anti-rabbit IgG1 (Invitrogen) NF-κB inhibition assay was almost similar to those previously described in [1], except that luminescence data were monitored with a Centro XS^3, LB960 luminometer (Berthold technologies.), which is more sensitive. All experiments were performed in duplicates in 96-well plates. […] After 4 h incubation, cells were centrifuged 7 min at 400×g, at 4° C.

70Z3-C3 cells = assay: Cellular uptake of BODIPY-labeled peptides by FACS; type: cell-based; conditions: 10 μM labeled peptide, 2 h, 37° C.
Method: 2.2×10^5 cells in 100 μl of 70Z3-C3 were incubated with either 10 μM or with various doses of 10 μM, 5 μM and 1 μM of labeled-peptides at 37° C., 5% CO2. Similarly to fluorescence microscopy experiments, cells alone or incubated with BODIPY®-labeled BSA (ref) or BODIPY®-UBI devoid of the antennapedia cell penetrating sequence were used as negative control, whereas cells with BA-UBI [1] at 10 μM were used as positive control. After 2 h incubation, cells were washed 4 times with PBS at room temperature, and finally diluted 1:3 in PBS before subjected to FACS analysis. Along with the BODIPY® fluorophore the fluorescence intensity was recorded at 525±25 nm using the Gallios Flow cytometer (Beckman Coulter) to analyse each cells sample. Each internalization peptide was assessed by gating a population of 15,000 events and the data were analysed using Kaluza software version 1.2.
For determination of cellular uptake by flow cytometry, the BA-UBI-SAHND306-Q313 stapled peptide was first incubated with 2.2×10^5 70Z3-C3 cells in […] either at 4° C. or 37° C. for 2 h. Bodipy-labeled BSA, bodipy alone and bodipy-UBI were used as negative controls to verify the washing quality and efficient removal of any non-specific binding at the cell surface before FACS analysis. […] After 2 h of incubation, cells were washed four times with PBS at room temperature and diluted at 1:3 in PBS for FACS analysis. Samples were analyzed as previously described in the European patent (No: 15307137.8).

[1] = CD spectroscopy, α-helical content; type: physicochemical; conditions: 50 μM peptide, phosphate buffer pH 7.0, UBI in TFE taken as 100%
[2] = Temperature-induced denaturation followed by CD; type: physicochemical; conditions: 30 μM or 300 μM, ΔCp ≈ 0
Method: Temperature-induced denaturation experiments were performed by measuring the ellipticity at 222 nm from 1° C. to 95° C. in 1° C. steps, at a rate of 1° C./min, with a 2 nm bandwidth. Thermodynamic parameters including the melting temperature (Tm) and the van't Hoff enthalpy change at the melting temperature (ΔHm) were determined by fitting the denaturation curves with the Gibbs-Helmholtz equation as described elsewhere, [10]. The heat capacity change (ΔCp) was assumed to be 0 as judged by ΔHm which yielded similar values within 10% at two independent peptide concentrations (30 and 300 μM). The ellipticity was converted to differential extinction coefficient Δε (M^−1·cm^−1) per residue taking into account the peptide concentration determined by amino acid analysis.
Thermal stability of the peptides was also investigated by performing thermal denaturation profiles followed by CD (FIGS. 1 C and D and Table III). […] Indeed, the helicity of UBI-Aib (49%) is only 1.16-fold increased at 1° C. compared to UBI (42%), while its melting temperature (Tm=−8° C.) is 2.25 times higher than that of UBI (Tm=−18° C.).

CC2-LZ domain of NEMO = CC2-LZ domain of NEMO (Mus musculus, UniProt O88522); assay: Fluorescence anisotropy/polarization binding assay; conditions: fixed peptide concentration 10 μM
Chain of CC2-LZ domain of NEMO (O88522 242-343 limits assumed): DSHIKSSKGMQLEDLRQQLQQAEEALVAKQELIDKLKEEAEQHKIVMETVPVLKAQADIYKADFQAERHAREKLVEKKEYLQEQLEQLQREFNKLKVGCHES
Method: Measurements were performed on a Tecan infinite F500 equipped with polarizing filters and using excitation and emission wavelengths at 485 nm and 535 nm, respectively. Anisotropy data were calculated using the Magellan software version 6.5. Prior experiments, the mouse CC2-LZ was extensively dialyzed in binding buffer containing 20 mM HEPES pH 7.4, 100 mM NaCl, and 0.05% P20 detergent (v/v). All experiments were performed in a 384 well plate (vol 25 μl) at room temperature. The BODIPY®-labeled peptide concentrations were fixed at 0.1 or 10 μM whereas the CC2-LZ concentration varied from 0 to 100 μM. Reference calibrated at 22 mP, was based on the fluorescence of the peptide alone. Each experimental binding curve was determined from at least 10 independent concentration points. The G-factor was calculated as previously described in Agou et al. [7], with a value of 0.75, which was observed constant within 5% upon all titrations. For analysis, the blank value corresponding to the value of buffer alone, was subtracted from all titration data.
All NEMO peptides were conjugated to an extra N-terminal cysteine with the fluorophore BODIPY® or FITC to determine their binding affinity for the CC2-LZ domain of NEMO (also called NOA or UBAN) by fluorescence polarization. For each peptide titration, various concentration of the target ranging from 0 to 100 μM and a fixed concentration of peptide at 0.1 or 10 μM were used at 25° C. […] For these reasons, all further titration experiments were performed with a fixed peptide concentration of 0.1 μM unless otherwise indicated.

Chain of NF-κB pathway (O88522 whole entry): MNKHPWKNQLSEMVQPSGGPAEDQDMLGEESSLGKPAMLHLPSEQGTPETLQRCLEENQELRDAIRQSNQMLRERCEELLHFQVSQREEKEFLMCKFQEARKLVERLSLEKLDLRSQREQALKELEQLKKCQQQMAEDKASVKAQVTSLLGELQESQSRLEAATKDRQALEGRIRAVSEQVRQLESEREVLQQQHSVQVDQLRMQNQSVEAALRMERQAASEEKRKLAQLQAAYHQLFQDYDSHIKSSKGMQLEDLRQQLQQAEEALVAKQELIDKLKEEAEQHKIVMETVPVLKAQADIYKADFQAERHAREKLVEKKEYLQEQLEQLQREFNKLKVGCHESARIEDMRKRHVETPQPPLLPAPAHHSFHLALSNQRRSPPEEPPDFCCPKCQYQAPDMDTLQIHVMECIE

Molecule: LKAQAX2IYKARFX5AERHAREK (LKAQA[R8]IYKARF[S5]AERHAREK; staple 6-13) [UBI-SAHN D306-Q313]
- IC 50 NF-κB inhibition (NF-κB pathway): N.I*
- FACS peak median, first or only peak (70Z3-C3 cells): 8
- FACS peak median, second peak (70Z3-C3 cells): 52

Molecule: CC[C@H](C)[C@@H]1NC(=O)[C@@](C)(NC(=O)[C@H](C)NC(=O)[C@H](CCC(N)=O)NC(=O)[C@H](C)NC(=O)[C@H](CCCCN)NC(=O)[C@H](CC(C)C)NC(=O)[C@H](CSC2CC(=O)N(CCNC(=O)CCC3=[N+]4C(=Cc5c(C)cc(C)n5[B-]4(F)F)C=C3)C2=O)NC(C)=O)CCCC=CCCC[C@@](C)(C(=O)N[C@@H](CCCNC(=N)N)C(=O)N[C@@H](Cc2ccccc2)C(=O)N[C@@H](CCC(N)=O)C(=O)N[C@@H](C)C(=O)N[C@@H](CCC(=O)O)C(=O)N[C@@H](CCCNC(=N)N)C(=O)N[C@@H](Cc2c[nH]cn2)C(=O)N[C@@H](C)C(=O)N[C@@H](CCCNC(=N)N)C(=O)N[C@@H](CCC(=O)O)C(=O)N[C@@H](CCCCN)C(N)=O)NC(=O)[C@H](CCCCN)NC(=O)[C@H](Cc2ccc(O)cc2)NC1=O (stereo partly shown) [UBI-SAHN D306-A310] (Ac-C(BODIPYFLEthylmaleimide)LKAQA[S5]IYK[S5]RFQAERHAREK-NH2; staple 7-11)
- α-helical content at 1° C. [1]: 65%
- ΔS [2]: −20 cal. mol^−1.K^−1
- Tm ([2]; thermal denaturation by CD): 20 ± 0.3 C°
- ΔH ([2]; van't Hoff enthalpy change at Tm): -5790 cal/mol
- Binding affinity (FP) at 10 μM (CC2-LZ domain of NEMO): Not detectable
- IC 50 NF-κB inhibition (NF-κB pathway): N.I*
- FACS peak median, first or only peak (70Z3-C3 cells): 1
- FACS peak median, second peak (70Z3-C3 cells): 35

Molecule: LKX1QADIYKX4RFQAERHAREK [UBI-SAHN A303-A310]
- IC 50 NF-κB inhibition (NF-κB pathway): N.I*
- FACS peak median, first or only peak (70Z3-C3 cells): 8
